From PubChem BioAssay AID1918935 (Molecular Pharmacology Branch, DTP, NCI, 2023)
Several values for one entry are separate records, joined by “and”; a condition that tells them apart may be missing. Equal entries are not always repeated.

Test system: 324938-238-R-J1-PDC complex spheroid viability
Experiment: Anticancer human tumor 324938-238-R-J1-PDC patient-derived bladder carcinoma cell line growth inhibition
Details: for viability, T/C: stronger effect = lower value
From the text: Multicellular complex tumor spheroid response to LSD1 Inhibitor Iadademstat in combination with a variety of drugs and investigational agents in selected tumor cell lines
The current study was undertaken to assess response to LSD1 inhibitors in combination with standard-of-care drugs and investigational agents in solid tumor complex spheroid models as well as in the K-562 leukemia. Complex spheroids include a stromal component modeled by human endothelial cells (HUVEC) and fibroblasts modeled by human mesenchymal stem cells (MSCs). The concentration ranges selected for each drug and investigational agent were based upon clinically achievable concentrations if the clinical Cmax of the agent was known.
Compounds. The drugs and investigational agents used in this study are listed on Table 1. All of the agents used, including staurosporine (NSC755774) and gemcitabine (NSC613327), were obtained from the Developmental Therapeutics Program, NCI. FDA-approved anticancer drugs are available from the NCI at http://dtp.nci.nih.gov/branches/dscb/oncology_drugset_explanation.html. Drugs and investigational agents were >95% pure by proton nuclear magnetic resonance (NMR) and liquid chromatography/mass spectrometry (LC/MS). Stock solutions were prepared at 400x in DMSO, stored at -70 degrees C, and diluted in fresh medium prior to their use. The final concentration of DMSO in cell culture wells never exceeded 0.25% (v/v). The FDA-approved anticancer drug set is available from the Developmental Therapeutics Program at https://dtp.cancer.gov/organization/dscb/obtaining/available_plates.htm. All drugs and investigational agents were tested over a range starting from a high concentration at or near the clinical Cmax and decreasing in half-log increments. If the clinical Cmax for an agent had not been determined, the highest concentration tested was 10 microM.
Cell Lines. The patient-derived cancer cell (PDC) lines: 292921-168-R-J2-PDC, K24384-001-R-PDC, and 521955-158-R2-J5-PDC pancreatic carcinomas, 556581-035-R-J1 ovarian carcinoma, 324938-238-R-J1-PDC, 855422-203-R-J1-PDC and 883617-216-R-J1-PDC urothelial bladder carcinomas, 743489-274-T-PDC renal cell carcinoma, 138582-R-J1 Merkel cell tumor, K60290-347-R-J1 and K57222-313-R-J1-PDC glioblastomas, 653999-131-R-J2-PDC, LG0703-F948-PDC, and 349418-098-R-PDC non-small cell lung carcinomas, 885512-296-R-J2-PDC, 171881-019-R-J1-PDC breast carcinomas and 186277-243-T-J2-PDC and 233499-124-R-J2-PDC colon carcinomas were obtained from the NCI Patient-Derived Models Repository (PDMR, https://pdmr.cancer.gov). The established cell lines NCI/ADR-RES (RRID:CVCL_14520 and OVCAR-5 (RRID:CVCL_1628) ovarian carcinomas, 786-O (RRID:CVCL_1051) and A498 (RRID:CVCL_A498) renal cell carcinoma, NCI-H211 (ATCC, cat. CRL-5824; RRID:CVCL_1529), NCI-H196 (ATCC, cat. CRL-5823, RRID:CVCL_1509), SW 1271 (ATCC, cat. CRL-2177, RRID:CVCL_1716) and NCI-H1876 (ATCC, cat. CRL-5902, RRID:CVCL_1503) small cell lung carcinomas, MDA-MB-231 (RRID:CVCL_0062) and MDA-MB-468 (RRID:CVCL_0419)breast carcinomas (10-12). Pooled donor human umbilical vein endothelial cells (HUVEC, Lonza, cat. CC-2519) and human mesenchymal stem cells (hMSC, Lonza, cat. PT-2501) were purchased from Lonza (Walkersville, MD).
Cell Culture. All cells were maintained in an incubator at 37 degrees C and 5% CO2 with 95% humidity. The PDC lines were cultured according to standard operating procedures established by the NCI PDMR (https://pdmr.cancer.gov). Briefly all PDCs were thawed and cultured in Matrigel-coated flasks prepared with a working solution of 1X Ham's F-12 nutrient mix, without supplementation (Invitrogen, Waltham, MA, cat. 11765054), 100 U/mL penicillin-streptomycin (Invitrogen, cat. 15140122), and 2.5% Matrigel (Corning Inc., Corning, NY, cat. 354248) for the first three passages. […]

[1] = curve of first compound, second compound 0.1 µM
[2] = curve of first compound, second compound 0.316 µM
[3] = curve of first compound, second compound 1 µM
[4] = curve of first compound, second compound 3.16 µM
[5] = curve of first compound, second compound 10 µM
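Note: spheroids also contain HUVEC and human MSCs and agents combined with iadademstat; spheroids exposed to agents for 7 days before readout.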

What does the source list for `Nc1ccccc1NC(=O)c1ccc(CNC(=O)OCc2cccnc2)cc1`?
viability, T/C (compound 0.00949 µM): 112% and 111%; viability, T/C (compound 0.03 µM): 107% and 111%; viability, T/C (compound 0.0949 µM): 96.8% and 88.3%; viability, T/C (compound 0.3 µM): 63.3% and 59.8%; viability, T/C (compound 0.949 µM): 37.7% and 37.5%; viability, T/C (compound 3 µM): 9.59% and 7.01%; IC50 (curve of compound): 555 nM and 507 nM

What does the source list for `Nc1ncn(C2CC(O)C(CO)S2)c(=O)n1` (centres undefined) + NC1CCC(NC2CC2c2ccccc2)CC1?
IC50 [1]: 26.6 nM; IC50 [2]: 19.9 nM; IC50 [3]: 22.8 nM; IC50 [4]: 13.1 nM; IC50 [5]: 16.3 nM; viability, T/C (second compound 0.1 µM, first compound 0.000949 µM): 71.9%; viability, T/C (second compound 0.1 µM, first compound 0.003 µM): 73.7%; viability, T/C (second compound 0.1 µM, first compound 0.00949 µM): 62.8%; viability, T/C (second compound 0.1 µM, first compound 0.03 µM): 47.2%; viability, T/C (second compound 0.1 µM, first compound 0.0949 µM): 34.2%; viability, T/C (second compound 0.1 µM, first compound 0.3 µM): 22.8%; viability, T/C (second compound 0.316 µM, first compound 0.000949 µM): 74.1%; viability, T/C (second compound 0.316 µM, first compound 0.003 µM): 71.8%; viability, T/C (second compound 0.316 µM, first compound 0.00949 µM): 60.1%; viability, T/C (second compound 0.316 µM, first compound 0.03 µM): 43.9%; viability, T/C (second compound 0.316 µM, first compound 0.0949 µM): 30.6%; viability, T/C (second compound 0.316 µM, first compound 0.3 µM): 22.9%; viability, T/C (second compound 1 µM, first compound 0.000949 µM): 77.1%; viability, T/C (second compound 1 µM, first compound 0.003 µM): 64.8%; viability, T/C (second compound 1 µM, first compound 0.00949 µM): 58.3%; viability, T/C (second compound 1 µM, first compound 0.03 µM): 49.3%; viability, T/C (second compound 1 µM, first compound 0.0949 µM): 35.6%; viability, T/C (second compound 1 µM, first compound 0.3 µM): 23.8%; viability, T/C (second compound 3.16 µM, first compound 0.000949 µM): 70.6%; viability, T/C (second compound 3.16 µM, first compound 0.003 µM): 62.1%; viability, T/C (second compound 3.16 µM, first compound 0.00949 µM): 55.3%; viability, T/C (second compound 3.16 µM, first compound 0.03 µM): 39.2%; viability, T/C (second compound 3.16 µM, first compound 0.0949 µM): 32.7%; viability, T/C (second compound 3.16 µM, first compound 0.3 µM): 22.2%; viability, T/C (second compound 10 µM, first compound 0.000949 µM): 65.9%; viability, T/C (second compound 10 µM, first compound 0.003 µM): 64.3%; viability, T/C (second compound 10 µM, first compound 0.00949 µM): 51.3%; viability, T/C (second compound 10 µM, first compound 0.03 µM): 48.1%; viability, T/C (second compound 10 µM, first compound 0.0949 µM): 29.7%; viability, T/C (second compound 10 µM, first compound 0.3 µM): 22.3%

Which results are given for `CC1COCCN1c1cc(-c2ccnn2C)c2ccnc(-c3ccn[nH]3)c2n1` (centres undefined)?
viability, T/C (compound 0.00316 µM): 101%; viability, T/C (compound 0.01 µM): 103% and 83.1%; viability, T/C (compound 0.0316 µM): 60.4% and 48.2%; viability, T/C (compound 0.1 µM): 33.5% and 25.6%; viability, T/C (compound 0.316 µM): 18.6% and 14.7%; viability, T/C (compound 1 µM): 13.1% and 10.3%; IC50 (curve of compound): 51.4 nM and 31.1 nM

With `Cn1ncnc1C1c2n[nH]c(=O)c3cc(F)cc(c23)NC1c1ccc(F)cc1` (centres undefined) + NC1CCC(NC2CC2c2ccccc2)CC1 as the molecule, how does the IC50 [1] read?
The IC50 was greater than 100 nM.

What about the IC50 [2] of the same molecule?
Its IC50 is greater than 100 nM.

And the IC50 [3]?
The IC50 was greater than 100 nM.

And the IC50 [4]?
The IC50 was 79.7 nM.

What about the IC50 [5] of the same molecule?
The IC50 was 73.8 nM.

And the viability, T/C (second compound 0.1 µM, first compound 0.000316 µM)?
The viability, T/C was 75.7%.

What about the viability, T/C (second compound 0.1 µM, first compound 0.001 µM) of the same molecule?
The viability, T/C was 81.6%.

And the viability, T/C (second compound 0.1 µM, first compound 0.00316 µM)?
The viability, T/C was 66.8%.

And the viability, T/C (second compound 0.1 µM, first compound 0.01 µM)?
Its viability, T/C is 64.1%.

What about the viability, T/C (second compound 0.1 µM, first compound 0.0316 µM) of the same molecule?
Its viability, T/C is 63.1%.

What about the viability, T/C (second compound 0.1 µM, first compound 0.1 µM) of the same molecule?
The viability, T/C was 50.8%.

What about the viability, T/C (second compound 0.316 µM, first compound 0.000316 µM) of the same molecule?
Its viability, T/C is 95%.

What about the viability, T/C (second compound 0.316 µM, first compound 0.001 µM) of the same molecule?
Its viability, T/C is 86.9%.

And the viability, T/C (second compound 0.316 µM, first compound 0.00316 µM)?
Its viability, T/C is 73.8%.

And the viability, T/C (second compound 0.316 µM, first compound 0.01 µM)?
The viability, T/C was 66.3%.

What about the viability, T/C (second compound 0.316 µM, first compound 0.0316 µM) of the same molecule?
The viability, T/C was 65.4%.

What about the viability, T/C (second compound 0.316 µM, first compound 0.1 µM) of the same molecule?
The viability, T/C was 55.8%.

What about the viability, T/C (second compound 1 µM, first compound 0.000316 µM) of the same molecule?
Its viability, T/C is 70.3%.

What about the viability, T/C (second compound 1 µM, first compound 0.001 µM) of the same molecule?
Its viability, T/C is 71.1%.

What about the viability, T/C (second compound 1 µM, first compound 0.00316 µM) of the same molecule?
Its viability, T/C is 77.2%.

And the viability, T/C (second compound 1 µM, first compound 0.01 µM)?
Its viability, T/C is 73%.

And the viability, T/C (second compound 1 µM, first compound 0.0316 µM)?
Its viability, T/C is 59.8%.

And the viability, T/C (second compound 1 µM, first compound 0.1 µM)?
The viability, T/C was 52.6%.

And the viability, T/C (second compound 3.16 µM, first compound 0.000316 µM)?
Its viability, T/C is 68.1%.

And the viability, T/C (second compound 3.16 µM, first compound 0.001 µM)?
The viability, T/C was 77.6%.

What about the viability, T/C (second compound 3.16 µM, first compound 0.00316 µM) of the same molecule?
The viability, T/C was 74.7%.

And the viability, T/C (second compound 3.16 µM, first compound 0.01 µM)?
Its viability, T/C is 66.8%.

What about the viability, T/C (second compound 3.16 µM, first compound 0.0316 µM) of the same molecule?
Its viability, T/C is 58.4%.

What about the viability, T/C (second compound 3.16 µM, first compound 0.1 µM) of the same molecule?
The viability, T/C was 48.1%.

What about the viability, T/C (second compound 10 µM, first compound 0.000316 µM) of the same molecule?
The viability, T/C was 66.2%.

What about the viability, T/C (second compound 10 µM, first compound 0.001 µM) of the same molecule?
Its viability, T/C is 72.7%.

What about the viability, T/C (second compound 10 µM, first compound 0.00316 µM) of the same molecule?
The viability, T/C was 71.8%.

What about the viability, T/C (second compound 10 µM, first compound 0.01 µM) of the same molecule?
The viability, T/C was 65%.

And the viability, T/C (second compound 10 µM, first compound 0.0316 µM)?
Its viability, T/C is 54.7%.

What about the viability, T/C (second compound 10 µM, first compound 0.1 µM) of the same molecule?
The viability, T/C was 48.3%.
